PMC5381205, “A Clinically Relevant Variant of the Human Hydrogen Sulfide-Synthesizing Enzyme Cystathionine β-Synthase: Increased CO Reactivity as a Novel Molecular Mechanism of Pathogenicity?” (Oxidative Medicine and Cellular Longevity, 2017)
Positions count from the first letter of the chain named. Values joined by “and” are separate entries in the source; they are usually repeats but may differ in a detail not shown here. Equal values may be shown once. Read-outs that look alike come from different tables or passages of the source. One block for each compound: values may come before it.

Assays:
[1] = biological target: T1, human CBS p.P49L (ferrous heme) (Homo sapiens, UniProt P35520, P49L); test: Stopped-flow kinetics of CO binding to ferrous CBS p.P49L; settings: for CO binding fitted rate constant k2 / CO binding fitted rate constant k1 / CO binding fitted rate constant k3: 1 mM CO, 25°C; for CO binding fitted rate constant k2: 30% reaction amplitude
T1 construct: Recombinant full-length human CBS p.P49L was expressed and purified; made in house; host or cells: E. coli
T1 sequence (P35520 1-551 P49L): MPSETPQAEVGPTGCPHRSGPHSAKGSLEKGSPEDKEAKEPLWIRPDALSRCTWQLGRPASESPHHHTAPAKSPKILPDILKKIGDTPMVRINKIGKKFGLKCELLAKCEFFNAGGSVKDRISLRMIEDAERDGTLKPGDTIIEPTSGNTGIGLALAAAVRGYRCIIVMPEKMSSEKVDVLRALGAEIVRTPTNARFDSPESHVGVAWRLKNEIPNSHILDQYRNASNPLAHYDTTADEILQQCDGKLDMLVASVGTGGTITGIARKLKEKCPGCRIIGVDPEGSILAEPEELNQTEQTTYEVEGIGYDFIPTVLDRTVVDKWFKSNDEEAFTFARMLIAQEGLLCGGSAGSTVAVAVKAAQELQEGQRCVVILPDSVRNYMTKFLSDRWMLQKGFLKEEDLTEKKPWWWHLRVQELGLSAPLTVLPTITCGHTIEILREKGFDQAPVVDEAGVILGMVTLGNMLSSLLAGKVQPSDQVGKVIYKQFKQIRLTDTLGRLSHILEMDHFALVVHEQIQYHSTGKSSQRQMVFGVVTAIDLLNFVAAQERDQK
Method: (§1) Time-resolved absorption spectroscopy experiments were carried out in a thermostated stopped-flow instrument (DX.17MV, Applied Photophysics), equipped with a photodiode-array (light path, 1 cm). To avoid light-induced artifacts, the intensity of the white-light incident beam was decreased and a filter cutting UV light at λ < 360 nm was employed. Absorption spectra were recorded with an acquisition time of 10 ms per spectrum according to a logarithmic time scale. All reactions were carried out at 25°C in buffer A. CBS p.P49L was thoroughly flushed with nitrogen, after which glucose oxidase (4 units·ml^−1), catalase (13 μg·ml^−1), superoxide dismutase (12 units·ml^−1), and glucose (3 mM) were added to scavenge oxygen, hydrogen peroxide, and superoxide anion. The protein was then placed on ice, protected from light to prevent possible damaging photoreactions. When indicated, CBS p.P49L was incubated with AdoMet for ≥10 minutes, prior to reduction with 90 µM sodium dithionite. CO association kinetics were studied by mixing in the stopped-flow apparatus reduced CBS p.P49L, in the absence or presence of AdoMet, with CO solutions and the spectra recorded over time. CO dissociation kinetics were evaluated by mixing the Fe(II)-CO adduct of CBS p.P49L with NO• stock solutions, prepared by equilibrating degassed ultra-pure water with NO• gas at 1 atm, further kept on ice protected from light.
(§2) CO affinity titrations and CO binding and dissociation kinetic data were analyzed with the software MATLAB (Mathworks). Global fit analysis of spectral data was performed by singular value decomposition analysis combined with curve fitting.

[2] = biological target: T2, recombinant human WT CBS (Homo sapiens, UniProt P35520); test: H2S synthesis assay (amperometric and lead acetate methods), WT CBS; type: biochemical; settings: for H2S-synthesizing activity stimulation by AdoMet: 500 μM AdoMet, 37°C
T2 construct: employed in this study, corresponding to full-length CBS WT and p.P49L purified in the absence; made in house
T2 sequence (P35520 1-551): T1 sequence (P35520 1-551 P49L) with L49P
Method: (§3) H2S production by recombinant human CBS variants was measured at 37°C, either by amperometry using a H2S-selective electrode (World Precision Instruments) or by the lead acetate method. Purified CBS (0.5–1 μM) was incubated for 10 minutes with 50 μM PLP, 260 U/ml catalase, and 0.4–2.0 mM homocysteine in the absence or presence of 0.5 mM AdoMet, after which 10 mM cysteine was added to trigger the reaction. Amperometric assays were performed using an ISO-H2S-2 hydrogen sulfide sensor coupled to an Apollo 4000 Free Radical Analyzer (World Precision Instruments). After recording H2S production for 3 minutes, the electrode was internally calibrated by adding 4 μM NaHS (corresponding to 2 μM H2S at pH 7.0). Finally, 50 μM o-acetylserine and 200 nM Entamoeba histolytica o-acetylserine sulfhydrylase were added to the reaction mixture to remove H2S from solution and bring the signal back to baseline. Activity assays by the lead acetate method were carried out in a thermostated cuvette under stirring, according to [5]. Lead acetate (400 μM) was added to the reaction mix prior to cysteine addition and H2S production monitored at 390 nm in an Agilent Cary-60 spectrophotometer.

[3] = biological target: T3, human WT CBS (ferrous heme) (Homo sapiens, UniProt P35520); test: Stopped-flow kinetics of CO binding to ferrous WT CBS; settings: WT enzyme
T3 construct: employed in this study, corresponding to full-length CBS WT and p.P49L purified in the absence; made in house
T3 sequence (P35520 1-551): T1 sequence (P35520 1-551 P49L) with L49P

[4] = biological target: T4, recombinant human CBS p.P49L (Homo sapiens, UniProt P35520, P49L); test: H2S synthesis assay (amperometric and lead acetate methods), CBS p.P49L; type: biochemical; settings: 37°C; for H2S-synthesizing activity stimulation by AdoMet: 500 μM AdoMet
T4 construct: Recombinant full-length human CBS p.P49L was expressed and purified; made in house; host or cells: E. coli
T4 sequence (P35520 1-551 P49L): T1 sequence (P35520 1-551 P49L)
Method: as §3

[5] = biological target: T2, recombinant human WT CBS; settings: isolated proteins and bacterial or human cell lysates; cited from earlier work
[6] = biological target: T5, human CBS p.P49L Fe(II)-CO adduct (Homo sapiens, UniProt P35520, P49L); test: Stopped-flow kinetics of CO dissociation (displacement by NO•) from CBS p.P49L; type: binding; settings: for CO displacement by NO• rate constant k2: 25% reaction amplitude
T5 construct: Recombinant full-length human CBS p.P49L was expressed and purified; made in house; host or cells: E. coli
T5 sequence (P35520 1-551 P49L): T1 sequence (P35520 1-551 P49L)
Method: as §1, §2

[7] = biological target: T6, human WT CBS Fe(II)-CO adduct (Homo sapiens, UniProt P35520); test: Stopped-flow kinetics of CO dissociation (displacement by NO•) from WT CBS; type: binding; settings: WT enzyme; NO• 900 µM after mixing; 75% relative amplitude; data not shown
T6 construct: employed in this study, corresponding to full-length CBS WT and p.P49L purified in the absence; made in house
T6 sequence (P35520 1-551): T1 sequence (P35520 1-551 P49L) with L49P

[8] = biological target: T1, human CBS p.P49L (ferrous heme); test: Anaerobic CO titrations of reduced CBS p.P49L (UV-visible absorption); type: binding; settings: 20°C
Method: UV-visible absorption spectra of oxidized and reduced CBS p.P49L and WT were recorded in an Agilent Cary-60 spectrophotometer. Anaerobic titrations of reduced CBS p.P49L with CO were performed at 20°C in an Agilent Cary-60 or a Shimadzu UVPC-1800 spectrophotometer. Gas exchange was prevented either by filling the quartz cuvette and sealing it with a rubber-cap or by adding mineral oil on top of the aqueous medium. Anaerobic conditions were ensured by nitrogen flushing and addition of glucose oxidase (4 units·ml^−1), catalase (13 μg·ml^−1), superoxide dismutase (12 units·ml^−1), and glucose (3 mM) to scavenge contaminant oxygen, hydrogen peroxide, and superoxide anion. CBS p.P49L and WT (1.4–1.6 μM in heme) were reduced with 90 μM sodium dithionite, diluted from a 45 mM stock solution (quantitated using ε314 nm = 8,043 M^−1·cm^−1 [50]). CO stock solutions were prepared by equilibrating thoroughly degassed buffer A with the pure gas at 1 atm, yielding 1 mM CO at 20°C. After each CO addition with gas-tight Hamilton syringes, the spectral changes were visually inspected in real time and a new addition was immediately made when no more changes were observed.
According to [16, 19, 20, 51], two apparent Kd (Kd1 and Kd2) were used to satisfactorily fit the CO affinity data. The Kd1 and Kd2 values were obtained by fitting the data to (1), where PL is the concentration of CO-bound CBS p.P49L, PT and LT are, respectively, the total CBS p.P49L and CO concentrations, and α1 and α2 are, respectively, the protein fractions binding CO at higher (Kd1) and lower (Kd2) affinity. (1) PL=α1PT+LT+Kd1−PT+LT+Kd1^2−4PTLT+α2PT+LT+Kd2−PT+LT+Kd2^2−4PTLT/2.
as §2

[9] = AdoMet-bound CBS p.P49L, 35% reaction amplitude

- fold increase in the CO association rate in the presence of AdoMet ([1]; p.P49L variant): ~ 4.5 fold
- AdoMet activation factor observed for the WT enzyme ([2]; WT enzyme, overall): ≤ 2 fold
- H2S-synthesizing activity stimulation by AdoMet ([2]; WT purified in the absence of PLP (PLP-untreated)): 1.5 fold
- H2S-synthesizing activity stimulation by AdoMet ([2]; WT purified in the presence of 20 μM PLP (PLP-treated)): 1.9 fold
- fold increase in the CO association rate in the presence of AdoMet [3]: ~ 2 fold
- H2S-synthesizing activity stimulation by AdoMet ([4]; p.P49L purified in the absence of PLP (PLP-untreated)): 1.4 fold
- H2S-synthesizing activity stimulation by AdoMet ([4]; p.P49L purified in the presence of 20 μM PLP (PLP-treated)): 1.1 fold
Compound: C[S+](CC[C@H](N)C(=O)[O-])C[C@H]1O[C@@H](n2cnc3c(N)ncnc32)[C@H](O)[C@@H]1O (stereo partly drawn) [AdoMet, S-Adenosyl-L-methionine]
- AdoMet activation factor of CBS enzymatic activity, as usually reported [5]: 2–5 fold

Compound: [C-]#[O+] [CO, Carbon monoxide]
- CO binding fitted rate constant k2 ([1]; AdoMet-bound CBS p.P49L): 0.26 s⁻¹
- CO binding fitted rate constant k1 [1, 9]: 2.55 s⁻¹
- CO binding fitted rate constant k3 [1, 9]: 0.022 s⁻¹
- CO binding fitted rate constant k1 ([1]; AdoMet-free CBS p.P49L, 25% reaction amplitude): 0.48 s⁻¹
- CO binding fitted rate constant k2 ([1]; AdoMet-free CBS p.P49L): 0.05 s⁻¹
- CO binding fitted rate constant k3 ([1]; AdoMet-free CBS p.P49L, 45% reaction amplitude): 0.006 s⁻¹
- CO displacement by NO• rate constant k2 ([6]; AdoMet-bound CBS p.P49L (500 μM before mixing), 900 μM NO•, Figure 5(b) fit): 0.038 s⁻¹
- CO displacement by NO• rate constant k1 ([6]; AdoMet-bound CBS p.P49L (500 μM before mixing), 900 μM NO•, 75% reaction amplitude, Figure 5(b) fit): 1.96 s⁻¹
- CO displacement by NO• rate constant k2 ([6]; AdoMet-free CBS p.P49L, 900 μM NO•, Figure 5(b) fit): 0.035 s⁻¹
- CO displacement by NO• rate constant k1 ([6]; AdoMet-free CBS p.P49L, 900 μM NO•, 75% reaction amplitude, Figure 5(b) fit): 1.93 s⁻¹
- CO displacement by NO• rate constant k1 ([6]; CBS p.P49L, NO• 900 µM after mixing, 75% relative amplitude, no effect of AdoMet): 2.0 ± 0.1 s⁻¹
- CO displacement by NO• rate constant k1 [7]: 2.0 ± 0.1 s⁻¹
- Kd ([8]; AdoMet-bound p.P49L CBS (500 μM AdoMet), 30% relative amplitude, read-out: KdCO,2): 1500 nM and 2100 nM
- Kd ([8]; AdoMet-bound p.P49L CBS (500 μM AdoMet), 70% relative amplitude, upper limit, read-out: KdCO,1): ≤ 30 nM
- Kd ([8]; AdoMet-free p.P49L CBS, higher-affinity fraction, 60% relative amplitude, read-out: KdCO,1): 60 nM and 50 nM
- Kd ([8]; AdoMet-free p.P49L CBS, lower-affinity fraction, 40% relative amplitude, read-out: KdCO,2): 21000 nM and 22000 nM

- basal H2S-synthesizing activity of p.P49L after PLP supplementation along the purification ([4]; p.P49L purified in the presence of 20 μM PLP (PLP-treated), compared with WT): basal activity similar to the WT enzyme
Compound: Cc1ncc(COP(=O)(O)O)c(C=O)c1O [PLP, Pyridoxal 5′-phosphate]
